In a melting point compilation (Tetko et al.; mined from patent text by program, amines drawn as free bases though some values may be those of a salt):

SMILES | melting point [°C]
CCc1cc(I)c(CC)cc1I | 68 to 69
CC(C)n1nc(C#C[Si](C)(C)C)ccc1=O | 61 to 62.5
CC1CC(=O)NN=C1c1ccc2c(c1)N(C1CCCC1)C(=O)C(C)O2 (stereo not given) | 220 to 223
CC(=O)Nc1ccc(N2CCNC2=O)cc1 | 270 to 273
N#CC1CN1C(=O)NC(=O)C(Cl)(Cl)Cl (stereo not given) | 150 to 152
O=C(O)Cc1cn(Cc2ccc(OCc3csc(-c4ccccc4)n3)nc2)nc1-c1ccccc1 | 118 to 119
CCC1Cc2cc(OC)ccc2C2CCC3(C)C(=O)CC(C)C3C12 (stereo not given) | 120 to 122
C=C(C)COc1ccc(C(=O)c2ccccc2)cc1 | 85 to 86.5
NS(=O)(=O)c1cc(C2CO2)ccc1F (stereo not given) | 100 to 103
COc1cc2c(cc1OC)CCC(/C=C/C(=N)NO)=C2 | 199 to 203
CC(=NO)NC/C(F)=C\CC[C@H](N)C(=O)O | 198 to 200
CS(=O)(=O)CC(=O)Nc1ccccc1 | 140 to 141
O=C1c2c(cccc2C(F)(F)F)-n2cnc(-c3noc(CN4Cc5ccccc5C4)n3)c2[C@@H]2CCN12 | 185 to 188
CC(Oc1cc2c(c(Cl)c1Cl)C(=O)C(C)(C1CCCC1)C2)C(=O)O (stereo not given) | 140 to 142
Cc1c(Cl)sn(-c2ccccc2)c1=O | 60 to 68
CCCOc1nc(=O)n(C(=O)NC)s1 | 112
CC1(C)Cc2c(c(O)cc3c2C(c2cccc(Br)c2)=NCC3(C)C)O1 | 230 to 235
Nc1nc(-c2ccncc2)nc2c1c(Br)nn2C1CCCC1 | 189 to 191
Nc1c(Cl)cccc1NC(=S)Nc1cscc1Cl | 276 to 280
N#Cc1cccc(NC(=O)C(=O)N2CCC(Cc3ccc(F)cc3)CC2)c1 | 135 to 138
CN(C)C(c1ccccc1)(c1cccc(Oc2ccccc2)c1)C1CCCCC1(O)Cc1ccccc1 (stereo not given) | 189 to 190
CSC(=NCCSCc1ccccn1)NC#N | 85 to 88
COc1ccc(-c2cc(F)c(F)cc2-c2ccc(S(N)(=O)=O)cc2)cc1OC | 157 to 158
O=c1cc(-c2ccc(OCc3ccccc3)c(OCc3ccccc3)c2)oc2ccc(OCC3CO3)cc12 (stereo not given) | 147 to 149

SMILES | melting point [°C]
CC(C)(C)OC(=O)C(Cl)=CC1C(C(=O)OC(C#N)c2ccc(F)c(Oc3ccccc3)c2)C1(C)C (stereo not given) | 94
c1cc(-c2cnn3cc(-c4ccc(OCCN5CCOCC5)cc4)cnc23)cs1 | 149 to 151
CCC(CC)c1nn(-c2ccc(C(F)(F)F)nn2)cc1CCCO | 86 to 87
CCCCCCCCCCCCCCCCCCC(N)(CO)CO | 76 to 80
Cc1nc2cc(N)ccc2c(=O)n1C1CCC(=O)NC1=O (stereo not given) | 305 to 307
NS(=O)(=O)c1ccccc1C1=NOCCO1 | 131 to 133
Cn1nc(C(=O)NCC2(O)CN3CCC2CC3)c2ccccc21 (stereo not given) | 147 to 149
CN1CCC2(CC1)c1ccccc1C(C)(O)c1c(O)cccc12 (stereo not given) | 151 to 154
N#Cc1ccc(C2CC(=O)N(CC3CC3)Cc3cncn32)cc1 (stereo not given) | 178 to 180
O=C1CCCCN1CCC(=O)N1CCC(C2c3ncc(Br)cc3CCc3cc(Cl)cc(Br)c32)CC1 (single isomer, unassigned; (+)) | 138 to 139
CC(=O)SC(CC(=O)c1ccc(Cl)c(Cl)c1)C(=O)O (stereo not given) | 102 to 105
COC(=O)c1ccc(C(=O)NS(=O)(=O)c2ccc(C(=O)NCCc3ccccc3OC)cc2)cn1 | 220 to 222
O=C1C=C(NC(=O)C(=O)c2cn(Cc3ccc(F)cc3)c3ccccc23)CO1 | 260 to 262
CN1CCSC1=NC(=O)CCC(=O)N=C1SCCN1C | 181 to 183
Cc1ccc2cc(NS(=O)(=O)c3cc(Cl)ccc3Cl)ccc2n1 | 125
N#Cc1ccc(C2CC(=O)N(Cc3ccccc3)Cc3cncn32)cc1 (stereo not given) | 65
Cc1cc(=O)[nH]c(NC(=N)Nc2ccccc2C)n1 | 260
CCOC(=O)C(Cc1ccc(O)cc1)c1cc2cc(C#N)ccc2s1 (stereo not given) | 146 to 147
CCNC(=O)CCCC1CCN(Cc2cnc3c(C)c(NC(=O)c4ccc(-c5ccc(F)cc5)cc4)ccc3c2)CC1 | 217 to 220
CCOC(=O)CCCC(=O)c1ccc(Br)s1 | 53 to 54
C=CCNc1ccc([N+](=O)[O-])cc1C(=O)c1ccccc1 | 97
Cc1ncc2n1-c1ccc(C#N)cc1C(c1ccccc1F)=NC2 | 198 to 203
Brc1cccc2c1[nH]c1c2ccc2cc[nH]c21 | > 250

Further lines, results first:

melting point [°C] | SMILES
132 to 133 | COC(=O)c1ncc(OCc2ccccn2)nc1NCc1ccc(OC)c(Cl)c1
179 to 180 | CNS(=O)(=O)Cc1cc(Br)c(NC(=O)C(F)(F)F)c(Br)c1
179 | Cc1cccc(C(=O)C(=C2SCS2)c2ccncc2)c1
126 to 127 | O=C(NC1CCCCC1)C(Br)c1ccccc1 (stereo not given)
215 to 218 | O=C(Nc1nc(-c2ccco2)c(-c2ccc(=O)n(Cc3ccccc3)c2)s1)c1ccncc1
119 to 122 | COc1ccc(C(=O)c2cccc(S(N)(=O)=O)c2)cc1
96 to 103 | CC(C)(C#N)Cc1cccc(-c2cccc(CC(C)(C)C#N)c2)c1
78 | CC(O)C1(C)COC(c2ccc(F)cc2)OC1 (stereo not given)
165 to 167 | O=C(C1CC1)N1CCCCc2cc(C(O)(C(F)(F)F)C(F)(F)F)ccc21
235 to 238 | Cc1cc(C)cc(CC(C)(C)NCC(O)c2cc(O)cc3c2OCC(=O)N3)c1 (stereo not given)
157 to 158 | Cc1sc(-c2ccccc2)nc1COc1ccc(Cn2cc(CCC(=O)O)c(-c3ccccc3)c2)cc1
265 to 266 | COc1ccc(-c2nc(N)sc2-c2cccnc2)cc1
208 to 209 | COc1nc(C)cnc1NS(=O)(=O)c1cccnc1-c1ccc(NC(C)=O)cc1
218 to 219 | COc1ccccc1NC(=S)C1CCc2nc[nH]c2C1 (stereo not given)
50 | CCCCCCCCCCc1ccc(C[N+](=O)[O-])cc1
192 to 193 | CCOC(=O)c1cc2cc(OC(F)(F)F)cc(NS(=O)(=O)c3cccs3)c2[nH]1
197 to 198 | CN(C)N1C2=NCCN2C(=O)c2ccccc21
257 to 260 | O=C1NCc2c1cc1ccc3c(c1c2-c1ccc(OCc2ccccc2)cc1)OCO3
201 to 203 | Cc1c(C)c2c(c(C)c1NC(=O)c1ccc(Cl)cc1)C(c1ccc(C(C)C)cc1)C(C)(C)O2 (stereo not given)
108 to 109 | CC(C)[C@H](C/C=C/C[C@H](C(=O)N1C(=O)OC[C@@H]1Cc1ccccc1)C(C)C)C(=O)N1C(=O)OC[C@@H]1Cc1ccccc1
150 | CCN(C(=O)C(F)(F)F)c1ccc(C(=O)Nc2ccc3ccc(OC)nc3n2)cc1
135 to 136 | CC(C)c1cn2ccccc2c1S(=O)(=O)c1ccc(OCCCN2CCN(c3ccccc3)CC2)cc1
89 to 91 | CC(=O)SCCC(=O)N1CCC=C1C(=O)O
171 to 173 | O=Cc1ccc2c(c1)Cc1cccnc1O2
85 | O=C(c1ccc(-n2ccc(CO)n2)cc1Cl)N1Cc2cccn2Cc2ccccc21
66 to 67 | CC1=NCN(c2cc(Br)cs2)O1
110 to 111 | Cc1ccccc1CC(=O)N1CCN(c2nccs2)CC1

melting point [°C] | SMILES
195 to 197 | CCOC(=O)c1c(NC(=O)C(F)(F)F)c2cccnc2n(CC)c1=O
182 to 183 | COCCNC(=O)c1ccc(C)c(-n2c(C)cc(OCc3ccccc3CNC(=O)Nc3cc(C(C)(C)C)nn3-c3ccc(Cl)c(O)c3)c(Cl)c2=O)c1
209 to 210 | C=CCC1(Cc2nc[nH]c2C)CCc2c(C)c3ccccc3n2C1=O (stereo not given)
130 to 131 | COc1c(C)c2c(c(N)c1C/C=C(\C)CCC(=O)O)C(=O)OC2
226 to 228 | O=C1C(=O)N(Cc2ccc(Nc3ncccn3)cc2)CCN1Cc1ccc(Nc2ncccn2)cc1
93 | CN1C(=O)C(C2=COc3ccccc3O2)=C(c2cn(C(=O)OC(C)(C)C)c3ccc(OCc4ccccc4)cc23)C1=O
144 to 146 | CNC(=S)C1(c2cccnc2)CCCCCC1=O (stereo not given)
124 to 125 | CC(C)NC1=NS(=O)(=O)c2cccc(Cl)c2N1
190 to 191 | COc1ccc(Cc2nc3n(c2Cc2ccc(OC)cc2)CCS3=O)cc1 (stereo not given)
231 | CC(C)(C)CNS(=O)(=O)c1cccc(NC(=O)c2cnn3c(C(F)(F)F)cc(-c4ccc(C(F)(F)F)cc4)nc23)c1
> 300 | O=c1[nH]c2[nH]c3ccc(Cl)cc3c2c2c(F)cccc12
123 to 124 | CSCc1c(C(F)(F)F)nn(C)c1O
195 to 196 | Cc1nnc2n1-c1ccc(Cl)cc1C(c1ccccc1Cl)=NN2Cc1ccncc1
149 to 151 | COc1ccc(Cc2nc3cc(Cl)cc(CC=NO)c3o2)cc1OC1CCCC1
77 to 79 | COc1ccc(S(=O)(=O)C(CC(=O)NO)Cc2ccccc2)cc1OC (stereo not given)
> 300 | CS(=O)(=O)On1c(=O)c2cc3c(=O)n(OS(C)(=O)=O)c(=O)c3cc2c1=O
86 to 87 | C#CC1CCC2(CC1)SCC(C(C)(C)C)CS2 (stereo not given)
168 to 170 | COc1ccc(N(C(=O)C(C)c2ccccc2)c2cccc(Nc3c(N)c(=O)c3=O)c2)cc1 (stereo not given)
116 to 117 | CNS(=O)(=O)CCS(C)(=O)=O
135 to 137 | CC(C)(OCc1n[nH]c2ccccc12)C(=O)O
234 to 235 | O=c1ccc2cc([N+](=O)[O-])cc(-c3cccc4ccccc34)c2[nH]1
103 to 107 | CCCCCCCCCCCCCCCCCCOc1cc(NC(C)=O)cc([N+](=O)[O-])c1
231 | O=C(Nc1cccc(S(=O)(=O)NCCO)c1)c1cnn2c(C(F)F)cc(-c3ccc(C(F)(F)F)cc3)nc12
80 to 81 | CCCCc1cc(=O)c(C(=O)OCC)cn1Cc1ccc(-c2ccccc2C(=O)OC(C)(C)C)cc1
209 to 210 | Cn1cc(-c2cc3cccnc3[nH]2)c2cc(OCCO)ccc21
107 | CCOC(=O)Oc1cc(OC)cc(OC)c1C(=O)C=Cc1ccc(OC)cc1
